Like-named read-outs stand apart in the source and are kept apart here. Values belong to the molecule of their own block, whether it stands above or below them.
What was measured:
[1] = molecular target: T1, rat homomeric P2X3 receptors (Rattus norvegicus, UniProt P49654); assay: Whole-cell patch clamp on HEK293 cells expressing rat homomeric P2X3R (activation and HAD inhibition of α,β-meATP test pulses); type: cell-based; settings: for nH of activation curve: partial agonist dose-response
T1 construct: transfected with rat or human full-length P2X3 cDNA subcloned into pIRES2-EGFP; expressed in transfected cells; host or cells: HEK293T (HEK293 in the results)
T1 sequence (P49654 1-397): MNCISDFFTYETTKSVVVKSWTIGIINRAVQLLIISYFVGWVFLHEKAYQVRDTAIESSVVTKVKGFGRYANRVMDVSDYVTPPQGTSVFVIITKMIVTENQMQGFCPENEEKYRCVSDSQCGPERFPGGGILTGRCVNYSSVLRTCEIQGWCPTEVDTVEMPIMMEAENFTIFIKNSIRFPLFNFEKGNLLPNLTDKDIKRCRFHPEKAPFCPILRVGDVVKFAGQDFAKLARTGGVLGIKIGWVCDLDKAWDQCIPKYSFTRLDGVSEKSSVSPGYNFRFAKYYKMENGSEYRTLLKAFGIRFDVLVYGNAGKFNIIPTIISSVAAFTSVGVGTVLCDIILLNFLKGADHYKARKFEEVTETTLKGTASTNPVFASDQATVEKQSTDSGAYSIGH
Description: Rat trigeminal, nodose, or dorsal root ganglion (TG, NG, and DRG, respectivley) neurons in culture were prepared as described previously.[46],[47] Neurons were plated on poly-L-lysine (0.2 mg/ml)-coated Petri dishes and cultured for one to two days under an atmosphere containing 5% CO2. Cells were used within two days of plating when they lacked processes. HEK293T cells were prepared as reported previously[32],[48] and transfected with rat or human full-length P2X3 cDNA subcloned into pIRES2-EGFP (Clontech, Mountain View, CA, USA).
TG, NG, DRG, or HEK cells were recorded in the whole-cell configuration while being continuously superfused (at 2 ml/min) with control solution containing (in mM): 152 NaCl, 5 KCl, 1 MgCl2, 2 CaCl2, 10 glucose, and 10 HEPES; pH was adjusted to 7.4 with NaOH and osmolarity was adjusted to 320 mOsM with glucose. […] Responses to selective P2X3R agonist α,β-methylene-ATP (α,β-meATP; resistant to ectoATPase hydrolysis, Sigma-Aldrich) were measured using an EPC-9 amplifier operated by HEKA Patch Master software (HEKA Electronik, Germany). Cells were voltage-clamped at −70 mV. In most cells, series resistance was compensated by 80%. To determine EC50 values, dose-response curves were constructed for α,β-meATP by administering different agonist doses same cells and fitting data to a logistic equation (Origin 8.0, Microcal, Northampton, MA).
Agonists and antagonists were applied (usually for 2 s) via a rapid superfusion system (Rapid Solution Changer RSC-200; BioLogic Science Instruments, Grenoble, France) placed 100 to 150 µm near the cell. The time for the solution exchange across the cell was approximately 30 ms, as judged with liquid junction potential measurements. All chemicals, including enzymes for cell culture, were from Sigma-Aldrich (St. Louis, MO). Culture media were obtained from Invitrogen (Milan, Italy).
The peak amplitudes of the responses were measured using HEKA Patch Master software. For each agonist, dose-response plots were constructed by normalizing data with respect to the maximum response. All data are presented as mean ± SEM (n = the number of cells) with statistical significance assessed by paired t-test (for parametric data) or Mann-Whitney rank-sum test (for nonparametric data). Best fits of data with a sigmoid function were compared with respective control fits using Origin 8.0 software. A value of p < 0.05 was accepted as indicative of statistically significant difference.
Figure 2. Activation and inhibition of rat P2X3 receptors by AppNHppA. Top: Experimental protocol. Test pulses of 10 µM of α,β-meATP were delivered every 2 min. After two control pulses, AppNHppA at different concentrations was applied for 6 min. Example traces of P2X3R-mediated currents in control and after 2 min application of 10 nM (a) and 3 μM (b) of AppNHppA (corresponding to the part of the experimental protocol outlined by a dotted box). (c) The time course of the current inhibition by AppNHppA at different (1 nM–3 μM) concentrations (n = 4–6). Current amplitudes are normalized to control. (d) Dose-response curves for the activation and inhibition of P2X3-mediated currents by AppNHppA.

[2] = test system: CFA-induced thermal hyperalgesia; assay: Hargreaves plantar test, CFA-induced thermal hyperalgesia; type: in vivo, rat; settings: 20 µM; for period after intraplantar injection in which antinociceptive effect was observed: inflamed hindpaw
Description: To induce chronic inflammatory hyperalgesia, rats were injected with complete Freund’s adjuvant (CFA, 100 μl of 50% solution) into the plantar surface of the right hindpaw 24 h prior to testing. Control animals were injected with 100 μl of pure saline. Injections of AppCH2ppA and AppNHppA (100 nM–100 μM) in 100 μl of 0.9% saline were made just before the beginning of the plantar test.
For intrathecal injection, a polyethylene-10 catheter was inserted into the rat’s subarachnoid space through a small incision at the cisterna magna, and the tip of the catheter was implanted at the L4 spinal segmental level. Animals were allowed to recover for at least four days before behavior tests. AppCH2ppA or vehicle (saline) was injected intrathecally (10 µl) and flushed with 10 µl of saline.
The Hargreaves technique[51] was used for thermal hyperalgesia studies (using the Ugo Basile Model 7370 Plantar Test). Paw withdrawal responses to noxious heat stimuli were measured in rats as described.[52] To measure response to noxious heat stimuli, each animal was placed in a Plexiglas chamber on a glass plate located above a light box. Radiant heat was applied by focused infrared (IR) beam to the middle of the plantar surface of rat hindpaw. When the animal lifted its foot, the IR beam was turned off. The time interval between the start of the IR beam and the foot lift was defined as the paw withdrawal latency. Each trial was repeated 13 times at 20-min intervals for each paw. A cut-off time of 30 s was used to prevent paw tissue damage.
Figure 10. Ap4A analogs reduced thermal hyperalgesia induced by complete Freund adjuvant (CFA) (Hargreaves plantar test). (a) Time course of the effects of subcutaneous injection of AppCH2ppA (20 µM) and AppNHppA (20 µM) on the paw withdrawal latency (PWL). […] (b) Bar graphs illustrating the effects of AppCH2ppA (20 µM) and AppNHppA (20 µM) on PWL. (c) Time course of effects of intraplantar and intrathecal administration of AppCH2ppA (20 µM) on PWL. […] (d) Bar graphs illustrating effects of intathecal and intraplantar administration of AppCH2ppA (20 µM) on the PWL (* vs. CFA, p < 0.05; *** vs. CFA, p < 0.001; ### vs. intrathecal, p < 0.001; seven rats for control, eight rats for CFA, six rats for intrathecal, and six rats for each compound for intraplantar injection were used).

- depression of P2X3R currents at high rate of activation ([1]; 1 µM, α,β-meATP pulses every 30 s): 81 ± 3%
- depression of P2X3R currents at low rate of activation ([1]; 1 µM, α,β-meATP pulses every 2 min): 61.3 ± 5%
- IC50 ([1]; 6 min after drug application, test pulse 10 µM α,β-meATP, read-out: IC50 of HAD inhibition of P2X3R currents): 0.55 ± 0.2 µM
- EC50 ([1]; HEK293 rat P2X3R, read-out: EC50 of partial agonist P2X3R activation): 9.3 ± 1.7 µM
- nH of activation curve [1]: 2.27 ± 0.56
Structure (SMILES): Nc1ncnc2c1ncn2[C@@H]1O[C@H](COP(=O)(O)OP(=O)(O)CP(=O)(O)OP(=O)(O)OC[C@H]2O[C@@H](n3cnc4c(N)ncnc43)C(O)C2O)C(O)C1O (stereo partly drawn) [AppCH2ppA, diadenosine 5′,5′′′-P^1,P^4-(β,γ-methylene)tetraphosphate]
- duration of antinociceptive effect, intraplantar ([2]; intraplantar): 180 min
- pain inhibition, intraplantar administration ([2]; intraplantar): 58%
- time after intraplantar injection at which effect became potent ([2]; intraplantar): 20 min
- period after intraplantar injection in which antinociceptive effect was observed ([2]; intraplantar): ≤ 200 min
- duration of antinociceptive effect, intrathecal ([2]; intrathecal): 60 min
- pain inhibition, intrathecal administration ([2]; intrathecal): 22%
- time after intrathecal injection at which effects were observed ([2]; intrathecal): 120 min

- IC50 [1]: 0.2 ± 0.04 µM
- amplitude of α,β-meATP test response after application ([1]; 10 nM, test pulse 10 µM α,β-meATP, 2-min interval): almost unchanged
- reduction of α,β-meATP test responses (HAD effect) ([1]; 100 nM, below activation threshold): 38.2 ± 8.5%
- inhibition of α,β-meATP test responses (HAD effect) ([1]; 3 µM, test pulse 10 µM α,β-meATP, 2-min interval): complete inhibition
- induction of membrane currents ([1]; 0.1 or 1 µM, HEK293 rat homomeric P2X3R): not to induce membrane currents
- EC50 ([1]; EC50 of activation (summary restatement), rat P2X3R, summary statement): 41 µM
- EC50 ([1]; EC50 of partial agonist P2X3R activation, HEK293 rat P2X3R): 41.6 ± 1.3 µM
- inhibitory action in presence of G-protein inhibitor GDP-β-S ([1]; GDP-β-S 500 µM introduced into cells): remained unchanged
- inhibition at 1 µM ([1]; HEK293, read-out: inhibitory action on P2X3 receptors with GDP-β-S in intracellular solution): 23.9 ± 5.24%
- inhibition at 1 µM ([1]; HEK293, read-out: inhibitory action on P2X3 receptors with GTP in intracellular solution): 23.4 ± 2.01%
- agonist type at homomeric P2X3Rs ([1]; compared with full agonist α,β-meATP): only a partial agonist
- nH of activation curve [1]: 1.58 ± 0.05
- EC50/IC50 ratio (activation/inhibition index) ([1]; rat P2X3R): 205
- current response relative to response induced by 10 µM α,β-meATP ([1]; saturating 1 mM, same cell): 41.2 ± 13%
Structure (SMILES): Nc1ncnc2c1ncn2[C@@H]1O[C@H](COP(=O)(O)OP(=O)(O)NP(=O)(O)OP(=O)(O)OC[C@H]2O[C@@H](n3cnc4c(N)ncnc43)[C@H](O)[C@@H]2O)[C@@H](O)[C@H]1O [AppNHppA, diadenosine 5′,5′′′-P^1,P^4-(β,γ-imido)tetraphosphate]
- currents generated ([1]; 10 or 100 µM, HEK293 rat homomeric P2X3R): small and slowly desensitizing currents
- duration of antinociceptive effect, intraplantar ([2]; intraplantar): 180 min
- time after intraplantar injection at which effect became potent ([2]; intraplantar): 20 min
- period after intraplantar injection in which antinociceptive effect was observed ([2]; intraplantar): ≤ 200 min

Source: paper PMC4955970, “Stable, synthetic analogs of diadenosine tetraphosphate inhibit rat and human P2X3 receptors and inflammatory pain” (Molecular Pain, 2016)
